The values that follow come from US12226410B2, “Methods for enhancing cellular clearance of pathological molecules via activation of the cellular protein ykt6” (NORTHWESTERN UNIVERSITY, priority 2019, dated 2025).

One assay deals with TH protein. The assay is described as follows: FTI treatment of DASYN53 mice: midbrain TH levels. Type of assay: in vivo. The following applies: i.p. 0.9 mg/kg, 26d. The source says: (§1) FIGS. 8A, 8B, 8C, 8D, 8E, and 8F. FTI treatment enhances GCase activity and reduces pathological a-syn in transgenic mice. 8A) GCase activity in the midbrain of FTI (LNK-754)-treated DASYN53 mice (treated as in FIG. 7) (n=4, veh; n=5, FTI). 8B & 8C) Quantification of soluble and insoluble a-syn from midbrains of FTI-treated DASYN53 mice normalized to total protein (CBB). Syn211 is selective for human (hu) a-syn; C20 and syn303 detect mouse (ms) and hu a-syn, (n=3, nTg+Veh; n=4, DASYN53+veh; n=5 DASYN53+FTI). 8D) Midbrain TH levels were quantified by western blot of FTI-treated DASYN53 mice (n=3). 8E) Body weight of FTI-treated DASYN53 mice (n=9, nTg+Veh; n=7, DASYN53+veh; n=7 DASYN53+FTI). 8F) Rotarod test of FTI-treated DASYN53 mice (n=12, nTg+Veh; n=7, DASYN53+veh; n=7 DASYN53+FTI). Values are the mean+/−SEM. *p<0.05, **p<0.01, and *** p<0.001. Student's t-test, panel A; ANOVA with Tukey's posthoc test, panels B-F.
Treatment of C57Bl/6 and DASYN53 mice with farnesyltransferase inhibitors. 3 mo old C57BL6 mice were i.p. injected daily with 0.9 mg/kg LNK-754 that was formulated in a vehicle of 0.5% sodium carboxymethylcellulose and filtered before use for 14 days. DASYN53 mice were i.p. injected daily with 0.9 mg/kg LNK-754 as above. Mice were perfused with PBS and the brains (cortex) were rapidly dissected and frozen until analysis. […]

A further assay relates to DASYN53 mice. The assay is described as follows: Behavioral analysis of DASYN53 mice (body weight, Rotarod). Type of assay: in vivo. The following applies: i.p. 0.9 mg/kg.
From the text: as §1
Behavioral analysis of DASYN53 mice. These assays were done as previously described (Tsika et al., 2010). […] Balance and motor behavior testing was done at the end of the injection protocol (between days 24-26) and determined using a Rotarod apparatus (Ugo Basile) with acceleration from 4-40 rpm over a 300 second period. Latency to fall was recorded over 4 trials per mouse, and the data were presented as the average of 3 trials (excluding the first trial as a training session). […]
(Falling from the rotarod earlier than controls is read as motor impairment.)

For `C#Cc1cccc(-c2cc(=O)n(C)c3ccc([C@](O)(c4ccc(Cl)cc4)c4cncn4C)cc23)c1` [LNK-754], in the assay with TH protein, the “TH levels in midbrain” value was “partially restore TH levels”. Moreover, the “reduction in body weight of DASYN53 mice” value with DASYN53 mice (day 23-24) was “rescued”. For the same molecule, the “reduction in motor performance (Rotarod) of DASYN53 mice” value with DASYN53 mice (days 24-26) is recorded as “rescued”.
